# According to PMC8111447 (Frontiers in Pharmacology, 2021):
# Tests used:
# Format in all cases: biochemical
# Flt3(h) = target: T1, Flt3(h) (Homo sapiens, UniProt P36888); assay: Kinase panel (Eurofins); settings: n = 2; for inhibition at 1 µM: at 1 μmol/L; for IC50: read-out: IC50 kinase inhibition
# T1 construct: purchased Eurofins
# T1 sequence (P36888 27-993): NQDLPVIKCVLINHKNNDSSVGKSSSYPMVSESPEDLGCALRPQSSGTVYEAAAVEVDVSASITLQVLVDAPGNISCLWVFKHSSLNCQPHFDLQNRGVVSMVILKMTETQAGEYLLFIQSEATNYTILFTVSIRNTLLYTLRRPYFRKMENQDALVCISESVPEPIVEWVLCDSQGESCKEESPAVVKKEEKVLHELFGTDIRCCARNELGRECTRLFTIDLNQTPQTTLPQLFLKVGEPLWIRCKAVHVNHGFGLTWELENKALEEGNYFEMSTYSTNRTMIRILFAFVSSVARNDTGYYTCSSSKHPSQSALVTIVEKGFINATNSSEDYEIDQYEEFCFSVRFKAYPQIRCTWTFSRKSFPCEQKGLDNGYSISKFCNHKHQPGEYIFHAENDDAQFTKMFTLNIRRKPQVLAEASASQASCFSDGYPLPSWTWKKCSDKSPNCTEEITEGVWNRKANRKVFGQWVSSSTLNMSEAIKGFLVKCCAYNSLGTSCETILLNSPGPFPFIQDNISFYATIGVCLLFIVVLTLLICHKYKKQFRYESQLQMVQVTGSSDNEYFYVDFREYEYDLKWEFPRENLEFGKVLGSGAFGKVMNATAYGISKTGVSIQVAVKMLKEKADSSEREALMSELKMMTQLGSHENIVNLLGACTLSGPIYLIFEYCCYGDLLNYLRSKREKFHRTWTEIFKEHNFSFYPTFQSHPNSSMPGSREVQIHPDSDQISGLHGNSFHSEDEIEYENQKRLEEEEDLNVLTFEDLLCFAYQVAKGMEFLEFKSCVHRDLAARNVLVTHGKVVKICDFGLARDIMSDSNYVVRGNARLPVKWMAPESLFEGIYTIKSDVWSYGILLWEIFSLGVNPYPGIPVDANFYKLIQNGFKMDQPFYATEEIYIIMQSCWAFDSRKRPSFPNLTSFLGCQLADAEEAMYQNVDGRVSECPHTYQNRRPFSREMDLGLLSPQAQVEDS
# Excerpt: (§1) These receptors have a methionine gatekeeper in their kinase domains, and are related to hyperglycemia in other clinical trials of EGFR TKI, such as Co-1686.
# Flt4(h) = target: T2, Flt4(h) (Homo sapiens, UniProt P35916); assay: Kinase panel (Eurofins); settings: n = 2; for inhibition at 1 µM: at 1 μmol/L; for IC50: read-out: IC50 kinase inhibition
# T2 construct: purchased Eurofins
# T2 sequence (P35916 25-1363): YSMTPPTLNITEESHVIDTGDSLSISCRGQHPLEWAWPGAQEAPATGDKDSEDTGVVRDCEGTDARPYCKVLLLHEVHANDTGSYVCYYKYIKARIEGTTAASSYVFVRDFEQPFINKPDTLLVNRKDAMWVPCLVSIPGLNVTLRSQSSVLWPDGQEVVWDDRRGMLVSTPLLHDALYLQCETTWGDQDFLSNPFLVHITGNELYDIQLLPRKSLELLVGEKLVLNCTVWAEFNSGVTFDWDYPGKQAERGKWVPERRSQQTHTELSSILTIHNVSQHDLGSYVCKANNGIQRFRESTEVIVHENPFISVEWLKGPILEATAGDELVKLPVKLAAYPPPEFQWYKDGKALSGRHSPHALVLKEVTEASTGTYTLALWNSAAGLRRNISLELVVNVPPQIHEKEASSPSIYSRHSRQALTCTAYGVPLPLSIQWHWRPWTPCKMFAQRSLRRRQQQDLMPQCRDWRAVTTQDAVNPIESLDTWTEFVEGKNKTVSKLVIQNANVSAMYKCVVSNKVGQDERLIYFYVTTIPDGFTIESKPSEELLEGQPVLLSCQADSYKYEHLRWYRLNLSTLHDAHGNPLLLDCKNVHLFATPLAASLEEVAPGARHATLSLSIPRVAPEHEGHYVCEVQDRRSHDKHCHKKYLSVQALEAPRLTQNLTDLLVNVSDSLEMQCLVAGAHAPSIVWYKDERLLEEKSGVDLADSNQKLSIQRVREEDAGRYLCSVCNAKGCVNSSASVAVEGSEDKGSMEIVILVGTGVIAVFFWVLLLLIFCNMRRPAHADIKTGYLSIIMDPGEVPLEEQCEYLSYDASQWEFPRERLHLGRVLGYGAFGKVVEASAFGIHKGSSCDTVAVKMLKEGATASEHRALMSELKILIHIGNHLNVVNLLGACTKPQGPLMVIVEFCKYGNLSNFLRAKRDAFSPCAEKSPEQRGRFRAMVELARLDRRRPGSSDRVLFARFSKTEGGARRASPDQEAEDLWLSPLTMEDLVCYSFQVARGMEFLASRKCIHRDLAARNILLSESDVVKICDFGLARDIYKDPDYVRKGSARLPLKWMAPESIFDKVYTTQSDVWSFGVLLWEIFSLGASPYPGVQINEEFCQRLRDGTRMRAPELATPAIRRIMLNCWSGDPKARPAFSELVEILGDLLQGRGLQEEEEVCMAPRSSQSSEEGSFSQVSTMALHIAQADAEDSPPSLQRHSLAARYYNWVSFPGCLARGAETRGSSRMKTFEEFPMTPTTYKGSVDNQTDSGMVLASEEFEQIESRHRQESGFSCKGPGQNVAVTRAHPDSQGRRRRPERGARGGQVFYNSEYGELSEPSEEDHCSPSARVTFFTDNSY
# Excerpt: as §1
# JAK3(h) = target: T3, JAK3(h) (Homo sapiens, UniProt P52333); assay: Kinase panel (Eurofins); settings: n = 2; for inhibition at 1 µM: at 1 μmol/L; for IC50: read-out: IC50 kinase inhibition
# T3 construct: purchased Eurofins
# T3 sequence (P52333 1-1124): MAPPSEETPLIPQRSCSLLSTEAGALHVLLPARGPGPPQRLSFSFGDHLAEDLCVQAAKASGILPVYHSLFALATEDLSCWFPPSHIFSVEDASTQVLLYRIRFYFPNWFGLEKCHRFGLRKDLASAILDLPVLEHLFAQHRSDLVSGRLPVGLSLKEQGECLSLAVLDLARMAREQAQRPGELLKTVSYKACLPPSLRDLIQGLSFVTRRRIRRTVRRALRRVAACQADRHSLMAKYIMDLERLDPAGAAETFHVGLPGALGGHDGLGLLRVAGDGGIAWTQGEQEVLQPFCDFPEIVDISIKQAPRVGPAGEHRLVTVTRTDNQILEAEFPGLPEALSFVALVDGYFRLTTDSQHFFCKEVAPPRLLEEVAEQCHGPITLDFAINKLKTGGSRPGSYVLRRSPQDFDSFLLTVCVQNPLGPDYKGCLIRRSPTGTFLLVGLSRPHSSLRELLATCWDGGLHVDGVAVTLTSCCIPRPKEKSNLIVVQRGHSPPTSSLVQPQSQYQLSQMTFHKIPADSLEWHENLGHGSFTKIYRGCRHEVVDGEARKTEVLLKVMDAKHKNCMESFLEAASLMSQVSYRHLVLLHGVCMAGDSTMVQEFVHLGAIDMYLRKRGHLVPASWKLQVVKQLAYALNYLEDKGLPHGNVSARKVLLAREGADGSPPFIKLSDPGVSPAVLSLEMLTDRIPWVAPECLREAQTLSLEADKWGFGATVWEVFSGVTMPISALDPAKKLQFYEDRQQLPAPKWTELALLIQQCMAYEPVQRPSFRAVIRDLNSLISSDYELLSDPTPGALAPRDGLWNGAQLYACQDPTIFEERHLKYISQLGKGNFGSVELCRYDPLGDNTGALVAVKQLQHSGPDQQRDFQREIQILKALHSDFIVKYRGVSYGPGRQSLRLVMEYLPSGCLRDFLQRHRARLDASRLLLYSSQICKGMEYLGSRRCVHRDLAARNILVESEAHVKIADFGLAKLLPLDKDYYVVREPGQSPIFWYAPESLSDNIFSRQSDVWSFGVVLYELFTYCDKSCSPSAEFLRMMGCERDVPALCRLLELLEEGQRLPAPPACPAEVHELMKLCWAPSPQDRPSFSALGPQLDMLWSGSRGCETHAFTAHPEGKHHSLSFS
# Excerpt: as §1
# Met(h) = target: T4, Met(h) (Homo sapiens, UniProt P08581); assay: Kinase panel (Eurofins); settings: n = 2; for inhibition at 1 µM: at 1 μmol/L; for IC50: read-out: IC50 kinase inhibition
# T4 construct: purchased Eurofins
# T4 sequence (P08581 25-1390): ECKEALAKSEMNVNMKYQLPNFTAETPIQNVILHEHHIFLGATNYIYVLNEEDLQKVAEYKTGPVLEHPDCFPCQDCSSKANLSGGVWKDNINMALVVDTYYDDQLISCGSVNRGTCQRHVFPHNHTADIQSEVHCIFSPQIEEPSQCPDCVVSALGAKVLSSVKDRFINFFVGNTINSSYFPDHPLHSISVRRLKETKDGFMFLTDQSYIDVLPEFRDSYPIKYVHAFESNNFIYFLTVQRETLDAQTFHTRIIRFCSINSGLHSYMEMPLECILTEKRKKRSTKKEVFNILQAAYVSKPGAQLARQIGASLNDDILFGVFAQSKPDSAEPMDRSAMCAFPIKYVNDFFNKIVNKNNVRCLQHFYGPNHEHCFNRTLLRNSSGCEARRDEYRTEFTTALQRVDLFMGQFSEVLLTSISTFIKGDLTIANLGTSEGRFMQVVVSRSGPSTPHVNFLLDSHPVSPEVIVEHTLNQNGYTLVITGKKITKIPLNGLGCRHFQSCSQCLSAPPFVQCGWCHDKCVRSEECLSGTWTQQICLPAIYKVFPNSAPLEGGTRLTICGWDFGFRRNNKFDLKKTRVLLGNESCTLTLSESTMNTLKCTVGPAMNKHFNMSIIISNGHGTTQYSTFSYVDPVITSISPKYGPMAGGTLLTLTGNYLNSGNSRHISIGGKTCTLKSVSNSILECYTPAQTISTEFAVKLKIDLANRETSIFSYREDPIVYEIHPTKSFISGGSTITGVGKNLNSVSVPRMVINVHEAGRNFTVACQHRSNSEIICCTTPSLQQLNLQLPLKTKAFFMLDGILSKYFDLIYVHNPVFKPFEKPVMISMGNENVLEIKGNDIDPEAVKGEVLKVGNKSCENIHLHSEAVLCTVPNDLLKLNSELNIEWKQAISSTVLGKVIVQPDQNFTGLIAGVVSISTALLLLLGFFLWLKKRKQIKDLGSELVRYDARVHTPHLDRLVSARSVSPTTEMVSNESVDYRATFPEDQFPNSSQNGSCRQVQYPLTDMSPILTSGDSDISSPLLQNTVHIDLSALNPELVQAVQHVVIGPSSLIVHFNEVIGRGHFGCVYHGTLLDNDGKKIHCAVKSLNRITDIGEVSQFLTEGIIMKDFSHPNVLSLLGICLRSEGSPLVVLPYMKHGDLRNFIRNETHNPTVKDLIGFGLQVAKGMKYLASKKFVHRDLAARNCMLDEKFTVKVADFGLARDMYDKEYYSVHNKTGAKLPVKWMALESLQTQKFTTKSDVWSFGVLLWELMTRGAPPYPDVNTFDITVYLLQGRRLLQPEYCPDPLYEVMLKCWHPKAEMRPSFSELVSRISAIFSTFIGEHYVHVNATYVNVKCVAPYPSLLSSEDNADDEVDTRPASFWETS
# Excerpt: as §1
# Mnk2(h) = target: T5, Mnk2(h) (Homo sapiens, UniProt Q9HBH9); assay: Kinase panel (Eurofins); settings: n = 2; for inhibition at 1 µM: at 1 μmol/L; for IC50: read-out: IC50 kinase inhibition
# T5 construct: purchased Eurofins
# T5 sequence (Q9HBH9 whole entry): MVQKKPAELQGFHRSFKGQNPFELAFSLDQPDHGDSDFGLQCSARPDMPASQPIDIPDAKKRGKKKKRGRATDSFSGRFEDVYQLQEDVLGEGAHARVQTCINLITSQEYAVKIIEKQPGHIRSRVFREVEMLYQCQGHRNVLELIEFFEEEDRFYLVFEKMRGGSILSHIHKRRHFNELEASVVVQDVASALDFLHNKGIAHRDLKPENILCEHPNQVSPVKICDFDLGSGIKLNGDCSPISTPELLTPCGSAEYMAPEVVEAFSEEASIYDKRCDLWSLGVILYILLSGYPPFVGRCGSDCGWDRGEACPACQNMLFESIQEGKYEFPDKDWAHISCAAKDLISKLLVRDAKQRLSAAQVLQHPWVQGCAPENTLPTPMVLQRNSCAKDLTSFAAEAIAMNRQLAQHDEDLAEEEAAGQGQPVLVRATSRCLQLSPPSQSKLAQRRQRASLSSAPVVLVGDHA
# Excerpt: as §1
# Blk(h) = target: T6, Blk(h) (Homo sapiens, UniProt P51451); assay: Kinase panel (Eurofins); settings: n = 2; for inhibition at 1 µM: at 1 μmol/L; for IC50: read-out: IC50 kinase inhibition
# T6 construct: purchased Eurofins
# T6 sequence (P51451 whole entry): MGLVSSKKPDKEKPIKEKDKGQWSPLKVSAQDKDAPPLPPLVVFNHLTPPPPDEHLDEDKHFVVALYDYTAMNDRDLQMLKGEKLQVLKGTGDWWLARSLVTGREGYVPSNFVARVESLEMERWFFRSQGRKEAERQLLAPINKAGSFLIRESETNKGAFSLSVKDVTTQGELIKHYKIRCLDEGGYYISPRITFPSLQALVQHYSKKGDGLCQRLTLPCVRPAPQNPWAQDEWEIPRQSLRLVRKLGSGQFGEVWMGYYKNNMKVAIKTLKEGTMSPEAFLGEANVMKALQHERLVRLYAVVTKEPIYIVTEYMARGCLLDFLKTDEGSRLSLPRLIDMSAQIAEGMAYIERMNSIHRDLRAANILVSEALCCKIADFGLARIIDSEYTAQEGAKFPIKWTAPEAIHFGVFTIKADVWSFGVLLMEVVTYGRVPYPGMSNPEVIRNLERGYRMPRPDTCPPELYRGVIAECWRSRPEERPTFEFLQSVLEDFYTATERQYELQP
# Excerpt: as §1
# ACK1(h) = target: T7, ACK1(h) (Homo sapiens, UniProt Q07912); assay: Kinase panel (Eurofins); settings: n = 2; for inhibition at 1 µM: at 1 μmol/L; for IC50: read-out: IC50 kinase inhibition
# T7 construct: purchased Eurofins
# T7 sequence (Q07912 whole entry): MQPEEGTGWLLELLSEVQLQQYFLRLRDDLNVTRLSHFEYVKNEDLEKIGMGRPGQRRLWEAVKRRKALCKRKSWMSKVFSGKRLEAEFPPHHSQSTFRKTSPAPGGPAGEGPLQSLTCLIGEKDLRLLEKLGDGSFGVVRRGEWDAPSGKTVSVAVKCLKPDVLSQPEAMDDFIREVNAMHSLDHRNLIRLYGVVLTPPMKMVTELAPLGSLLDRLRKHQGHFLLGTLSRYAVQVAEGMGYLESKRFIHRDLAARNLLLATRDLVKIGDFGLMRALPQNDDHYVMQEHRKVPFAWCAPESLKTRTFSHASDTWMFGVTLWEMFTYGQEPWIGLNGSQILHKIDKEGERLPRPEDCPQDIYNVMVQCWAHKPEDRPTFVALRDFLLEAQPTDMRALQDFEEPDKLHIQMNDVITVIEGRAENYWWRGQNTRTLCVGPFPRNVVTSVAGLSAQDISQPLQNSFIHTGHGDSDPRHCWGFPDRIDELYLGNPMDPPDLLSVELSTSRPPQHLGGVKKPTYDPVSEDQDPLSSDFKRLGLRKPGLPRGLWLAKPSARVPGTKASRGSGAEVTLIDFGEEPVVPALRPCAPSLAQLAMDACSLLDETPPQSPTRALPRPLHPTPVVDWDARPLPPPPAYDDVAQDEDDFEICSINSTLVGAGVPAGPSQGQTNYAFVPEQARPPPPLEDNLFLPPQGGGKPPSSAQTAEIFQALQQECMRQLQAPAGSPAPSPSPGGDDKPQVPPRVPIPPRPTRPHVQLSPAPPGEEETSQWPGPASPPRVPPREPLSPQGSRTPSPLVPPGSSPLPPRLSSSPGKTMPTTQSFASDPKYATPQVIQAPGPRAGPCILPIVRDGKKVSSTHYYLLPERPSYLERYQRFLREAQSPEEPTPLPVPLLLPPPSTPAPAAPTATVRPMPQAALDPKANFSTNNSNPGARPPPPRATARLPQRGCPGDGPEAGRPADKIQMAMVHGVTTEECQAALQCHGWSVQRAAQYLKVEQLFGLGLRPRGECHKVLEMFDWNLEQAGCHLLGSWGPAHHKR
# Excerpt: as §1
# EGFR^WT = EGFR^WT (Homo sapiens, UniProt P00533); assay: EGFR kinase inhibition assay (HTRF); settings: 30 μmol/L ATP, no pre-incubation, n = 3
# Procedure: (§2) The sequence of the substrate is proprietary to CisBio. […] Kinase activity assays were performed in a total reaction volume of 3 μl per well. […] The substrate mixture (1.5 μl) consisted of 1 μmol/L TK substrate, 30 μmol/L ATP, 1 mmol/L DTT, and 10 mmol/L MgCl2. […] The plates were incubated for 1 h before being read on Pherastar using standard HTRF settings. […] There was no pre-incubation of the test compounds with the enzyme/substrate mixture prior to ATP addition. For IC50 calculation, data were analyzed using XLFit version 5.3.
# EGFR^L858R/T790M = target: T8, EGFR^L858R/T790M (Homo sapiens, UniProt P00533, L858R/T790M); assay: EGFR kinase inhibition assay (HTRF); settings: 30 μmol/L ATP, no pre-incubation, n = 3
# T8 construct: with amino acids 696-end containing the mutations T790M and L858R; GST (N); purchased Millipore
# Procedure: as §2
Structure (SMILES),inhibition at 1 µM (Flt3(h)),IC50 (Flt3(h)),inhibition at 1 µM (Flt4(h)),IC50 (Flt4(h)),inhibition at 1 µM (JAK3(h)),IC50 (JAK3(h)),inhibition at 1 µM (Met(h)),IC50 (Met(h)),inhibition at 1 µM (Mnk2(h)),IC50 (Mnk2(h)),inhibition at 1 µM (Blk(h)),IC50 (Blk(h)),inhibition at 1 µM (ACK1(h)),IC50 (ACK1(h)),IC50 (EGFR^WT),IC50 (EGFR^L858R/T790M)
C=CC(=O)Nc1cc(Nc2nccc(-c3c4n(c5ccccc35)CCCC4)n2)c(OC)cc1N(C)CCNC [Imp3],97%,45 nM,96%,104 nM,55%,1370 nM,73%,486 nM,69%,22 nM,85%,229 nM,90%,124 nM,144 nM,1 nM
C=CC(=O)Nc1cc(Nc2nccc(-c3c4n(c5ccccc35)CCCC4)n2)c(OC)cc1N(C)CCN(C)C [SH-1028],88%,71 nM,92%,62 nM,61%,1750 nM,46%,737 nM,63%,23 nM,83%,143 nM,81%,86 nM,18 nM,0.1 nM
